This is an account of results in patent EP1331219A1.

Common to all, as to assay type: binding, mouse
Assay [1] relates to murine monoclonal antibody 6H5D1C4 (DASM243-6H5D1C4). Briefly: Competition ELISA on BSA-Met1 coated plates: cross reactivity with methamphetamine analogs. Particulars: methamphetamine recognized more than ecstasy. (In an ELISA, binding on a coated surface is turned into a signal by an enzyme label.)
Assay [2] deals with murine monoclonal antibody DASM243-6H5D1C4 (IgG2b), raised against TT-Met1. The assay is described as follows: RIA: affinity determination by competition between labeled and unlabeled metabolite. Particulars: purified mAb, calculated by the method of Müller from IC50.
The target in assay [3] is murine monoclonal antibody DASM243-A10A6A2 (IgG1), raised against TT-Met1. The assay is described as above. Particulars: purified mAb, calculated by the method of Müller from IC50.

Molecules are shown by their SMILES. Counter-ions that a name gives are not always drawn.

For `CN[C@@H](C)Cc1ccccc1` [Methamphetamine, methamphetamine], the “recognition of methamphetamine relative to ecstasy” value in assay [1] is given as 10 times.

Take `CNC(C)Cc1ccccc1` (stereo not drawn) [methamphetamine oxalate]: the Ka is 2.58e+08 M⁻¹ in assay [2] and 5.58e+06 M⁻¹ in assay [3].
